Source: ChEMBL document CHEMBL5360614, “Quinoline Thiourea-Based Zinc Ionophores with Antibacterial Activity” (J Med Chem, 2023)
Calls of active or inactive are those of the source. No cut-off for these calls is given here.

Key:
[1] = system: Lipid bilayer; test: (§1) Induction of ionophore activity across EYPC:CHOL (8:2) large unilamellar vesicles assessed as transmembrane cation transport by measuring decrease in fluorescence intensity for HPTS dye preincubated for 3 mins followed by LiCl addition and mesured after 7.5 mins by HPTS dye based fluorescence spectrophotometric analysis; details: time 10.5 min
[2] = system: Lipid bilayer; test: as §1, with “CsCl” for “LiCl”; details: time 10.5 min
[3] = system: Lipid bilayer; test: as §1, with “CuCl2” for “LiCl”; details: filed as opener; time 10.5 min
[4] = system: Lipid bilayer; test: as §1, with “anion” for “cation”, “ZnSO4” for “LiCl”; details: filed as opener; time 10.5 min
[5] = system: Lipid bilayer; test: as §1, with “anion” for “cation”, “Zn(NO3)2” for “LiCl”; details: filed as opener; time 10.5 min
[6] = system: Lipid bilayer; test: (§2) Induction of ionophore activity across EYPC:CHOL (8:2) large unilamellar vesicles assessed as transmembrane Zn2+ ion transport by measuring decrease in fluorescence intensity for HPTS dye upto 25 uM preincubated for 3 mins followed by ZnCl2 addition and mesured after 7.5 mins by HPTS dye based fluorescence spectrophotometric analysis; details: filed as opener, time 10.5 min
[7] = system: Lipid bilayer; test: as §2, with “HPTS dye at 25 uM” for “HPTS dye upto 25 uM”, “followed by 1 to 25 mM ZnCl2 addition” for “followed by ZnCl2 addition”; details: filed as opener, time 10.5 min
[8] = system: Lipid bilayer; test: as §2, with “measuring” for “measuring decrease in”, “CFZ” for “HPTS”, “at 10” for “upto 25”; details: filed as opener, time 10.5 min
[9] = system: Lipid bilayer; test: as §2, with “measuring” for “measuring decrease in”, “CFZ” for “HPTS”, “at 5 to 20” for “upto 25”; details: filed as opener; dose 5-20 µM, time 10.5 min
[10] = system: Escherichia coli; test: Antibacterial activity against Escherichia coli MTCC 1687 assessed as reduction in bacterial growth incubated for 14 to 16 hrs by microbroth dilution method; type: functional; details: time 14-16 hrs
[11] = system: Staphylococcus aureus; test: Antibacterial activity against Staphylococcus aureus MTCC-96 assessed as reduction in bacterial growth incubated for 14 to 16 hrs in presence of 400 uM ZnCl2 by microbroth dilution method; type: functional; details: time 14-16 hrs
[12] = system: Staphylococcus aureus; test: Antibacterial activity against Staphylococcus aureus MTCC-96 assessed as reduction in bacterial growth incubated for 14 to 16 hrs in presence of EGTA by microbroth dilution method; type: functional; details: time 14-16 hrs
[13] = system: Staphylococcus aureus; test: Antibacterial activity against Staphylococcus aureus MTCC-96 assessed as reduction in bacterial growth incubated for 14 to 16 hrs in presence of 100 to 400 uM Zn(NO3)2 by microbroth dilution method; type: functional, organism-based; details: time 14-16 hrs
[14] = system: Staphylococcus aureus; test: Antibacterial activity against Staphylococcus aureus MTCC-96 assessed as reduction in bacterial growth incubated for 14 to 16 hrs in presence of 100 to 400 uM ZnSO4 by microbroth dilution method; type: functional, organism-based; details: time 14-16 hrs
[15] = system: Staphylococcus aureus; test: Antibacterial activity against Staphylococcus aureus MTCC-96 assessed as reduction in bacterial growth incubated for 14 to 16 hrs in presence of 100 to 400 uM CaCl2 by microbroth dilution method; type: functional, organism-based; details: time 14-16 hrs
[16] = system: Staphylococcus aureus; test: Disruption of membrane integrity in Staphylococcus aureus MTCC-96 assessed as change in cocci shape in presence of Zn2+ ion by FE-SEM analysis; type: functional, organism-based
[17] = system: Staphylococcus aureus; test: Induction of intracellular ROS generation in Staphylococcus aureus MTCC-96 assessed as change in fluorescence intensity at 1 uM incubated for 30 mins in presence of Zn2+ ions by DCF-DA staining based fluorescence spectroscopic analysis; type: functional, organism-based
[18] = system: Staphylococcus aureus; test: Antibacterial activity against Staphylococcus aureus MTCC-96 assessed as resistance development by measuring fold increase in MIC and measured after 30 days in presence of ZnCl2 by microbroth dilution method; type: functional, organism-based; details: time 30.0 day
[19] = system: PBMC; test: Cytotoxicity against human PBMC cells assessed as reduction in cell viability at 12.5 to 200 uM incubated for 24 hrs in presence of ZnCl2 by MTT assay; type: toxicity, cell-based; details: dose 12.5-200 µM
[20] = system: MCF7; test: Cytotoxicity against human MCF7 cells assessed as reduction in cell viability at 1 to 100 uM incubated for 44 hrs by MTT assay; type: toxicity, cell-based; details: mcf7, 44 h, dose 1-100 µM
[21] = system: MDA-MB-231; test: Cytotoxicity against human MDA-MB-231 cells assessed as reduction in cell viability at 1 to 100 uM incubated for 44 hrs by MTT assay; type: toxicity, cell-based; details: mda-mb-231, 44 h, dose 1-100 µM
[22] = system: A549; test: Cytotoxicity against human A549 cells assessed as reduction in cell viability at 1 to 100 uM incubated for 44 hrs by MTT assay; type: toxicity, cell-based; details: a549, 44 h, dose 1-100 µM
[23] = system: Staphylococcus aureus; test: In vivo antibacterial activity against Staphylococcus aureus MTCC-96 infected in Balb/c mouse assessed as bacterial load by measuring CFU in liver at 156.5 microM/Kg, iv for 7 days by CFU assay (Rvb= 719 CFU); type: functional; details: time 7 day
[24] = system: Staphylococcus aureus; test: In vivo antibacterial activity against Staphylococcus aureus MTCC-96 infected in Balb/c mouse assessed as liver central vein with minimum infiltration at 156.5 microM/Kg, iv for 7 days by hematoxylin and eosin staining based microscopic analysis; type: functional, organism-based; details: time 7.0 day
[25] = system: Staphylococcus aureus; test: In vivo antibacterial activity against Staphylococcus aureus MTCC-96 infected in Balb/c mouse assessed as hepatocyte distribution at 156.5 microM/Kg, iv for 7 days by hematoxylin and eosin staining based microscopic analysis; type: functional, organism-based; details: time 7.0 day
[26] = system: Staphylococcus aureus; test: In vivo antibacterial activity against Staphylococcus aureus MTCC-96 infected in Balb/c mouse assessed as uniform distribution of hepatocytes in liver tissue at 31.6 microM/Kg, iv for 7 days in presence of ZnCl2 by hematoxylin and eosin staining based microscopic analysis; type: functional, organism-based; details: time 7.0 day
[27] = system: Staphylococcus aureus; test: In vivo antibacterial activity against Staphylococcus aureus MTCC-96 infected in Balb/c mouse assessed as uniform distribution of hepatic lobules in liver tissue at 31.6 microM/Kg, iv for 7 days in presence of ZnCl2 by hematoxylin and eosin staining based microscopic analysis; type: functional, organism-based; details: time 7.0 day
[28] = system: Staphylococcus aureus; test: In vivo antibacterial activity against Staphylococcus aureus MTCC-96 infected in Balb/c mouse assessed as uniform distribution of hepatocytes in liver tissue at 156.5 microM/Kg, iv for 7 days by hematoxylin and eosin staining based microscopic analysis; type: functional, organism-based; details: time 7.0 day
[29] = system: Staphylococcus aureus; test: In vivo antibacterial activity against Staphylococcus aureus MTCC-96 infected in Balb/c mouse assessed as uniform distribution of hepatic lobules in liver tissue at 156.5 microM/Kg, iv for 7 days by hematoxylin and eosin staining based microscopic analysis; type: functional, organism-based; details: time 7.0 day
[30] = system: Staphylococcus aureus; test: In vivo antibacterial activity against Staphylococcus aureus MTCC-96 infected in Balb/c mouse assessed as uniform distribution of sinusoids in liver tissue at 156.5 microM/Kg, iv for 7 days by hematoxylin and eosin staining based microscopic analysis; type: functional, organism-based; details: time 7.0 day
[31] = system: Staphylococcus aureus; test: Antibacterial activity against gentamicin-and methicillin-resistant Staphylococcus aureus ATCC 33592 assessed as reduction in bacterial growth incubated for 14 to 16 hrs in presence of 200 uM ZnCl2 by microbroth dilution method; type: functional; details: time 14-16 hrs

For `FC(F)(F)c1cc(NC(=S)Nc2cccc3ccc(-n4cnc5ccccc54)nc23)cc(C(F)(F)F)c1`, the Activity [1] was “inactive”, the Activity [2] was “inactive” and the Activity [3] was “Active”. For the same molecule, the Activity [4] was “Active”, the Activity [5] was “Active” and the Activity [6] was “Active”. The Activity [7] was “Active”, the Activity [8] was “Active” and the Activity [9] was “Dose-Dependent Effect”. The MIC [10] was over 50 µM, the MIC [11] was 0.47 µM and the MIC [12] was 6.25 µM. For the same molecule, the Activity [13] was “Active”, the Activity [14] was “Active” and the Activity [15] was “inactive”. The Activity [16] was “inactive”, the Activity [17] was “Active” and the Activity [18] was “inactive”. The Activity [19] was “Non-Toxic”, the Activity [20] was “Non-Toxic” and the Activity [21] was “Non-Toxic”. For the same molecule, the Activity [22] was “Non-Toxic”, the Activity [23] was 46 CFU and the Activity [24] was “Active”. The Activity [25] was “Active”, the Activity [26] was “Active” and the Activity [27] was “Active”. The Activity [28] was “Active”, the Activity [29] was “Active” and the Activity [30] was “Active”. It also gave an MIC [31] of 2 µM.
